target: T1, Prostaglandin G/H synthase 1 (Ovis aries) (UniProt P05979); test: Inhibition of ovine COX1 at 100 uM
T1 sequence (whole entry): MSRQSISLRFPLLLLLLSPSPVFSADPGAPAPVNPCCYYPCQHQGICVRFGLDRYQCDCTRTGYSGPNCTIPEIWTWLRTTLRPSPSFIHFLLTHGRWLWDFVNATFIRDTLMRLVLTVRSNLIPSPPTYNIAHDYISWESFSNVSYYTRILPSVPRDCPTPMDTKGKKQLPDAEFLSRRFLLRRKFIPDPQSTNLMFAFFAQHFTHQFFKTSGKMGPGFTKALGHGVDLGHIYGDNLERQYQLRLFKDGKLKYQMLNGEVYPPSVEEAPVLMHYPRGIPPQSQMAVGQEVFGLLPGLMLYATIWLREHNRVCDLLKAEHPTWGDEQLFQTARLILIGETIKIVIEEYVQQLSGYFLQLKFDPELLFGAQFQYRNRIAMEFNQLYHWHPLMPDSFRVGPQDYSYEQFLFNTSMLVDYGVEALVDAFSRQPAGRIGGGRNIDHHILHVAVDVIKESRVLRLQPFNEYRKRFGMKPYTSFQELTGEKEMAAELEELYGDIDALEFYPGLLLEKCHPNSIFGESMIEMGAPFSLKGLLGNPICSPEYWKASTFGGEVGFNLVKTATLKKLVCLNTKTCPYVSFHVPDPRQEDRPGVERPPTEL

Structure (SMILES)	inhibition [%]
CC(=O)OC[C@]1(C)CCC[C@]2(C)[C@@H](CC/C(C)=C/C(=O)O)[C@](C)(O)CC[C@@H]12	2
C[C@@]1(CO)CCC[C@]2(C)[C@@H](CCO)[C@](C)(O)CC[C@@H]12	44
C/C(=C\C(=O)O)CC[C@@H]1[C@@]2(C)CCC[C@@](C)(CO)[C@@H]2CC[C@@]1(C)O	29
CC(=O)OCC[C@@H]1[C@@]2(C)CCC[C@@](C)(COC(C)=O)[C@@H]2CC[C@@]1(C)O	18
